# Laboratory results reported in patent US20240199598A1 (MITOIMMUNE THERAPEUTICS INC., priority 2021, published 2024).
# Experiments:
# [1] = Stability test of Crystalline form III of sulfate (light, dark, 60° C., 40° C./75% RH); format: physicochemical
# Procedure: The chemical and physical stability of Crystalline form III were studied under conditions of light, light-shielding, 60° C. and 40° C./75% RH for 1 month. […] In the light stability test, the crystalline form was stored in a light stability test chamber without a lid and thus exposed to a total illuminance of 1.2 million lux-hr, and a sample vial completely covered with an aluminum foil was regarded as a light-shielded control (Dark control). Appearance by visual observation for 2 weeks, 1 month, 2 months and 3 months was recorded, and purity assessment and XPRD data collection for residual solid contents were performed.
# [2] = Maintenance of Crystalline form III under melting-cooling, water sorption and desorption, compressive behavior and grinding tests (XRPD); format: physicochemical; conditions: melting-cooling method
# Procedure: 10 mg of a sample was placed in a mesh stainless steel basket using SMS DVS Advantage 1. The entire experimental cycle consists of two scans (water sorption and desorption) at a constant temperature (25° C.) and 10% RH intervals in the range of 40 to 90% (60 to 360 minutes for each humidity level).
# XRPD result, no novel crystalline form was produced.
# As an XRPD result, no novel crystalline form was produced.
# As a result of the XRPD test, no novel crystalline form was produced.
# As a result of the XRPD test, no novel pattern was produced.
structure (smiles),measurement,setting,value
O=S1(=O)CCN(Cc2cc(NC3CCOCC3)c3[nH]c(-c4ccccc4)cc3c2)CC1 [Crystalline form III],Purity decrease,[1]; 40° C. for 1 month,0.67%
same,Appearance,"[1]; 40° C./75% RH, 1 M",White powder
same,Assay,"[1]; 40° C./75% RH, 1 M",102.84%
same,Final purity,"[1]; 40° C./75% RH, 1 M",98.71%
same,Purity change,"[1]; 40° C./75% RH, 1 M",−0.67%
same,XRPD patterns,"[1]; 40° C./75% RH, 1 M",Pattern III
same,Appearance,"[1]; 40° C./75% RH, 2 w",White powder
same,Assay,"[1]; 40° C./75% RH, 2 w",99.42%
same,Final purity,"[1]; 40° C./75% RH, 2 w",98.77%
same,Purity change,"[1]; 40° C./75% RH, 2 w",−0.61%
same,XRPD patterns,"[1]; 40° C./75% RH, 2 w",Pattern III
same,Stability (in words),[1]; 60° C. for 1 month,stable
same,Appearance,"[1]; 60° C., 1 M",White powder
same,Assay,"[1]; 60° C., 1 M",106.79%
same,Final purity,"[1]; 60° C., 1 M",99.25%
same,Purity change,"[1]; 60° C., 1 M",−0.13%
same,XRPD patterns,"[1]; 60° C., 1 M",Pattern III
same,Appearance,"[1]; 60° C., 2 w",White powder
same,Assay,"[1]; 60° C., 2 w",101.08%
same,Final purity,"[1]; 60° C., 2 w",99.24%
same,Purity change,"[1]; 60° C., 2 w",−0.14%
same,XRPD patterns,"[1]; 60° C., 2 w",Pattern III
same,Appearance,[1]; Dark (light-shielded control),White powder
same,Assay,[1]; Dark (light-shielded control),103.17%
same,Final purity,[1]; Dark (light-shielded control),99.33%
same,Purity change,[1]; Dark (light-shielded control),−0.05%
same,XRPD patterns,[1]; Dark (light-shielded control),Pattern III
same,Appearance,[1]; Initial,White powder
same,Final purity,[1]; Initial,99.38%
same,XRPD patterns,[1]; Initial,Pattern III
same,Appearance,[1]; Light (1.2 million lux-hr),Taupe powder
same,Assay,[1]; Light (1.2 million lux-hr),101.77%
same,Final purity,[1]; Light (1.2 million lux-hr),99.38%
same,Purity change,[1]; Light (1.2 million lux-hr),−0.00%
same,XRPD patterns,[1]; Light (1.2 million lux-hr),Pattern III
same,Stability (in words),[1]; light and light-shielding conditions,stable
same,Stability of the crystalline form (in words),[2],stable under each test condition
